Results: article PMC6028563, “Probing Substituents in the 1- and 3-Position: Tetrahydropyrazino-Annelated Water-Soluble Xanthine Derivatives as Multi-Target Drugs With Potent Adenosine Receptor Antagonistic Activity” (Frontiers in Chemistry, 2018)
Converted amounts (≈) assume the structure as drawn. Where two headings read alike, the source gives them in different places.

How the values were obtained:
recombinant human MAO-B [1] = target: T1, recombinant human MAO-B (Homo sapiens, UniProt P27338); conditions: human (h); Figure 3 and introduction; ref Drabczynska et al., 2007; Koch et al., 2013; Brunschweiger et al., 2014, 2016; cited from earlier work
T1 construct: purchased Sigma-Aldrich M7441; host or cells: baculovirus-infected insect cells
T1 sequence (P27338 1-520): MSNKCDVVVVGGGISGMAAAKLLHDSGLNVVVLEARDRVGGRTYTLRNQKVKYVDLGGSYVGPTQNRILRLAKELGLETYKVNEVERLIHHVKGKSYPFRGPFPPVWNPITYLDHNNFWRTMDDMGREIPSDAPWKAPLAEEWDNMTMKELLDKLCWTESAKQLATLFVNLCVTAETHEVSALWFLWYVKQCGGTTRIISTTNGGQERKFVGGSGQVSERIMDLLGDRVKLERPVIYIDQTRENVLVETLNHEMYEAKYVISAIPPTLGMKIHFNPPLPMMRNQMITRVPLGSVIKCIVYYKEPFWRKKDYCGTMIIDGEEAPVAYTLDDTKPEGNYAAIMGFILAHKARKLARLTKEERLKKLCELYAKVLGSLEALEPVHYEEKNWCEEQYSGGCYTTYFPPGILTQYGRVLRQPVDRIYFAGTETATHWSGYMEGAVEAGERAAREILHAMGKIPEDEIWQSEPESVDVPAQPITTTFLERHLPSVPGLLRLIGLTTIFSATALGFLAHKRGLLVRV

human A2A AR [2] = target: T2, human A2A AR (Homo sapiens, UniProt P29274); conditions: human (h); Figure 3 and introduction; ref Drabczynska et al., 2007; Koch et al., 2013; Brunschweiger et al., 2014, 2016; cited from earlier work
T2 construct: expressed in transfected cells; host or cells: CHO cells
T2 sequence (P29274 whole entry): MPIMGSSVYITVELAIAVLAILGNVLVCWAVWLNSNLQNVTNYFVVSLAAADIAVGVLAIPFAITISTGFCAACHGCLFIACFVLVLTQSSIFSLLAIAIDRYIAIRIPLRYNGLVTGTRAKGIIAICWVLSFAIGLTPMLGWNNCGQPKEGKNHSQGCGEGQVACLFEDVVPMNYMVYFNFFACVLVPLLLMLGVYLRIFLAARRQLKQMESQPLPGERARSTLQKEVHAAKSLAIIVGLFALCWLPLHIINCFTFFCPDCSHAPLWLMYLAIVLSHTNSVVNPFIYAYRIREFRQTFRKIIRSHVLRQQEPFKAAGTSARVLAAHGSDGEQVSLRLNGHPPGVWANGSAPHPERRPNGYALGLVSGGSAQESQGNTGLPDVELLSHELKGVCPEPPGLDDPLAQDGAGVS

human A1 AR [3] = target: T3, human A1 AR (Homo sapiens, UniProt P30542); conditions: human (h); Figure 3 and introduction; ref Drabczynska et al., 2007; Koch et al., 2013; Brunschweiger et al., 2014, 2016; read-out: A1 (Ki); cited from earlier work
T3 construct: expressed in transfected cells; host or cells: CHO cells
T3 sequence (P30542 1-326): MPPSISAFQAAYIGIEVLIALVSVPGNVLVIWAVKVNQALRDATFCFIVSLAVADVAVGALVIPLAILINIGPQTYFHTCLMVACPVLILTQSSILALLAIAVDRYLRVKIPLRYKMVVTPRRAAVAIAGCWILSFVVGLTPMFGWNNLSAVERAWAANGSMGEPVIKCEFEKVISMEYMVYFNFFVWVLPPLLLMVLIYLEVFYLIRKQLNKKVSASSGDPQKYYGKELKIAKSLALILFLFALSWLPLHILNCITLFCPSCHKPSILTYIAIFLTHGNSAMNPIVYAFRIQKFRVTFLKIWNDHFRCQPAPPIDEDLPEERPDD

human A2B AR = target: T4, human A2B AR (Homo sapiens, UniProt P29275); test: Radioligand binding assay at human A2B AR vs. [^3H]PSB-603
T4 construct: expressed in transfected cells; host or cells: CHO cells
T4 sequence (P29275 1-332): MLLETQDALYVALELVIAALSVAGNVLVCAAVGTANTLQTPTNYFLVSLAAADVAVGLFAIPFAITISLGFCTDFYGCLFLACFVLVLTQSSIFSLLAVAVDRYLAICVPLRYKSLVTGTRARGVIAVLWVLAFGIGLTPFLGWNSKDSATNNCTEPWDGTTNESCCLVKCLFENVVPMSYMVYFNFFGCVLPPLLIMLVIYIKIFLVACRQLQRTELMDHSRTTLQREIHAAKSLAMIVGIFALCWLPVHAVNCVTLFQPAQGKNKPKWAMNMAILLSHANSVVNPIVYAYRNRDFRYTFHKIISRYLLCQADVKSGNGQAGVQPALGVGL
Method in brief: (§1)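 Competition binding; rat A1: brain cortex membranes; rat A2A: brain striatum membranes; human A1/A2A/A2B/A3: membranes from CHO cells each expressing one human subtype. Affinity only, no functional testing.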

human A1 AR [4] = target: T3, human A1 AR; test: Radioligand binding assay at human A1 AR vs. [^3H]CCPA; conditions: human (h); CHO cell membranes; n = 3
Method in brief: as §1

human A2A AR [5] = target: T2, human A2A AR; test: Radioligand binding assay at human A2A AR vs. [^3H]MSX-2
Experimental: Membrane preparations and radioligand binding assays at rat A1 (rat brain cortex) and rat A2A ARs (rat brain striatum) were performed as previously described (Ozola et al., [2003]; Alnouri et al., [2015]). For assays at human A1, A2A, A2B, and A3 ARs, CHO cell membranes expressing one of the human AR subtypes were used as previously reported (Klotz et al., [1998]; Alnouri et al., [2015]; De Filippo et al., [2016]).
The synthesized tetrahydropyrazino[2,1-f ]purinediones 13–20 were evaluated in radioligand binding assays for their affinity to A1 ARs of rat brain cortical membrane and to A2A ARs of rat brain striatal membrane preparations. Selected compounds were further investigated for their affinity to human A1 and A2A ARs recombinantly expressed in Chinese hamster ovary (CHO) cells. All compounds were additionally investigated for their affinity to human A2B and A3 ARs recombinantly expressed in CHO cells to determine their AR subtype selectivity. […] It is well known that all xanthine derivatives lacking a ribose moiety, including tricyclic compounds, can only block ARs, but never act as AR agonists; therefore, additional functional studies were not required. […] Potent MAO-B inhibitors were additionally investigated for inhibition of human MAO-A to assess their selectivity. Results are presented in Tables 1–6, and data of standard ligands are included for comparison.

rat A2A AR = target: T5, rat A2A AR (Rattus norvegicus, UniProt P30543); test: Radioligand binding assay at rat A2A AR (rat brain striatum) vs. [^3H]MSX-2; conditions: rat (r); for % inhibition of radioligand binding at indicated concentration, A2A vs. [^3H]MSX-2: at 1,000 nM; for Ki: rat brain striatum, n = 3, read-out: Ki ± SEM, A2A vs. [^3H]MSX-2
T5 construct: A2A ARs of rat brain striatal membrane preparations; from tissue; host or cells: rat brain striatum membranes
T5 sequence (P30543 whole entry): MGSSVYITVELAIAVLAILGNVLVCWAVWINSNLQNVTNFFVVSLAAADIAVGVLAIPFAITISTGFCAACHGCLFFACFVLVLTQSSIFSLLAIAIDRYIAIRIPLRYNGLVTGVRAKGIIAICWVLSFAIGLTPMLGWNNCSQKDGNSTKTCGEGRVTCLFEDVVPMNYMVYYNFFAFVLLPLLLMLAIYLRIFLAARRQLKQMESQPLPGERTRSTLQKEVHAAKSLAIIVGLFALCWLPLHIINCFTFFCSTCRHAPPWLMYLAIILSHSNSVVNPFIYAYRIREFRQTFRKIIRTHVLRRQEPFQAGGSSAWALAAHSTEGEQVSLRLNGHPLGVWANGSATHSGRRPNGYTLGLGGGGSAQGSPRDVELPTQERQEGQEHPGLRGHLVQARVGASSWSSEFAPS
Method in brief: as §1

rat A1 AR = target: T6, rat A1 AR (Rattus norvegicus, UniProt P25099); test: Radioligand binding assay at rat A1 AR (rat brain cortex) vs. [^3H]CCPA; conditions: rat (r); rat brain cortex; n = 3
T6 construct: A1 ARs of rat brain cortical membrane; from tissue; host or cells: rat brain cortex membranes
T6 sequence (P25099 1-326): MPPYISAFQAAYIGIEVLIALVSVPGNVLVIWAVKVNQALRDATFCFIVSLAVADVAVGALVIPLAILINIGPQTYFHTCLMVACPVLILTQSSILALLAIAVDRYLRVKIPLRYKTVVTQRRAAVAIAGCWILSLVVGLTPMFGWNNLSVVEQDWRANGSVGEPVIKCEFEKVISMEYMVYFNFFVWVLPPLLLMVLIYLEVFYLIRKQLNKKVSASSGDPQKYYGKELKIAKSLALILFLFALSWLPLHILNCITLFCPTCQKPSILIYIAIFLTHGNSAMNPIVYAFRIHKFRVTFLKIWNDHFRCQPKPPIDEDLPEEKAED
Method in brief: as §1

recombinant human MAO-B [6] = target: T1, recombinant human MAO-B; test: Monoamine oxidase assay (Amplex Red), MAO-B; type: biochemical; conditions: for inhibition at 10 µM: at 10,000 nM (10 μM), read-out: % inhibition at indicated concentration, Human MAO-B; for IC50: n = 3, read-out: IC50 ± SEM, Human MAO-B
Method in brief: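 Inhibition was measured with an Amplex Red monoamine oxidase assay, using human MAO-A and MAO-B produced recombinantly in baculovirus-infected insect cells. For rat MAO-B, liver mitochondria-enriched fractions from male Sprague Dawley rats served as enzyme source.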

recombinant human MAO-A = target: T7, recombinant human MAO-A (Homo sapiens, UniProt P21397); test: Monoamine oxidase assay (Amplex Red), MAO-A; type: biochemical; conditions: for inhibition at 10 µM: at 10,000 nM, read-out: % inhibition at indicated concentration, Human MAO-A; for IC50: n = 3, read-out: IC50 ± SEM, Human MAO-A
T7 construct: purchased Sigma-Aldrich M7316; host or cells: baculovirus-infected insect cells
T7 sequence (P21397 1-527): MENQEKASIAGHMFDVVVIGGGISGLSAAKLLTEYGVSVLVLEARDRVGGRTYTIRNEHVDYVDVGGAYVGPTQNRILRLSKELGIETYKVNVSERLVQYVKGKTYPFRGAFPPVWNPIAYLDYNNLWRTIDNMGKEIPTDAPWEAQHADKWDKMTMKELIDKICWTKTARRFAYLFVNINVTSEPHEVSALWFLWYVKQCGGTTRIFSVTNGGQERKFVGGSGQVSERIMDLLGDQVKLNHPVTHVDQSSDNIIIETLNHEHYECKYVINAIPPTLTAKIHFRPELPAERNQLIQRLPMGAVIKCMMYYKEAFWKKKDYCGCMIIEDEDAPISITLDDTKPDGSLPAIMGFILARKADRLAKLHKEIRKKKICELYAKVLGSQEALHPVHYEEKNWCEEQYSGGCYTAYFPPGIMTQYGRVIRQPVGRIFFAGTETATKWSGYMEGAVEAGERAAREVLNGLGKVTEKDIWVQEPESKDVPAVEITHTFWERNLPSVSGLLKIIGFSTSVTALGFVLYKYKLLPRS
Experimental: The determination of MAO-A and MAO-B inhibition was performed using commercially available recombinant human MAO-A and MAO-B enzymes expressed in baculovirus-infected insects sells (Sigma-Aldrich, M7316 and M7441) applying the commercially available Amplex® Red monoamine oxidase assay kit (Invitrogen A12214). The assays were performed as previously described. The determination of rat MAO-B inhibition was performed using mitochondrial-enriched fractions from male Sprague Dawley rat livers. […]

[7] = Thermodynamic solubility measurements; type: physicochemical; conditions: thermodynamic from solid, thermodynamic solubility
From the text: This is expected to facilitate dissolution in the stomach. Depending on the substitution pattern they may also be well soluble at higher pH values (Brunschweiger et al., [2014]). In the present study we measured thermodynamic solubility of only very few compounds exemplarily (14a-e, 14g, 15f,g) and confirmed their high solubility at pH 1 (see Table S1 in Supplementary Material). Most of these compounds were still soluble at pH 7.4. The best soluble derivative was the 3-ethyl-1-methyl-8-m-fluorobenzyl derivative 14g with solubilities of >1.5 g/L (4.2 mM) at pH 1, 50 mg/L (0.14 mM) at pH 4, and 40 mg/L ([…]) at pH 7.4.
Table S1. Solubility of selected compounds at three different pH values (in mg/mL).a
Compound pH 1 pH 4 pH 7.4
adetermined by thermodynamic solubility measurements.

human A3 AR = target: T8, human A3 AR (Homo sapiens, UniProt P0DMS8); test: Radioligand binding assay at human A3 AR vs. [^3H]PSB-11; conditions: CHO cell membranes, n = 2 (n = 3 where marked a), read-out: Ki ± SEM, A3 vs. [^3H]PSB-11
T8 construct: expressed in transfected cells; host or cells: CHO cells
T8 sequence (P0DMS8 1-318): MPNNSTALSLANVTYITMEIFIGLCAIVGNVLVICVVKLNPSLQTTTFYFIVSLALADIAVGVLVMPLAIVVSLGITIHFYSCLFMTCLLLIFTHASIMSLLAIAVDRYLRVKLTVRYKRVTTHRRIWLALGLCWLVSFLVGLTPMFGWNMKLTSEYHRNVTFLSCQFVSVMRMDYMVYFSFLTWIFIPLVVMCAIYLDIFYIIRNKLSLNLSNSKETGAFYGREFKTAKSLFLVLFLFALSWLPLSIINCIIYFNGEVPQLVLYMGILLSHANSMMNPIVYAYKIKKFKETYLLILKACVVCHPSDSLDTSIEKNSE
Method in brief: as §1

Structure (SMILES)	IC50 (recombinant human MAO-B [1]) [nM]	Ki (human A2A AR [2]) [nM]	Ki (human A1 AR [3]) [nM]	inhibition at 10 µM (human A2B AR; at 10,000 nM, read-out: % inhibition of radioligand binding at indicated concentration, A2B vs. [^3H]PSB-603) [%]	Ki (human A1 AR [4]) [nM]	% inhibition of radioligand binding at indicated concentration, A2A vs. [^3H]MSX-2 (human A2A AR [5]; at 1,000 nM) [%]	% inhibition of radioligand binding at indicated concentration, A2A vs. [^3H]MSX-2 (rat A2A AR) [%]	Ki (rat A2A AR) [nM]	Ki (rat A1 AR) [nM]	inhibition at 10 µM (recombinant human MAO-B [6]) [%]	IC50 (recombinant human MAO-B [6]) [µM]	inhibition at 10 µM (recombinant human MAO-A) [%]	IC50 (recombinant human MAO-A) [µM]	solubility ([7]; aqueous buffer, pH 4, read-out: Solubility, pH 4) [µg/mL]	solubility ([7]; aqueous buffer, pH 7.4, read-out: Solubility, pH 7.4) [µg/mL]	solubility ([7]; simulated gastric fluid, pH 1, read-out: Solubility, pH 1) [µg/mL]	Ki (human A2B AR; CHO cell membranes, n = 2 (n = 3 where marked a), read-out: Ki ± SEM, A2B vs. [^3H]PSB-603) [nM]	inhibition at 1 µM (human A2B AR; at 1,000 nM, read-out: % inhibition of radioligand binding at indicated concentration, A2B vs. [^3H]PSB-603) [%]	Ki (human A3 AR) [µM]	Ki (human A2A AR [5]; CHO cell membranes, n = 3, read-out: Ki ± SEM, A2A vs. [^3H]MSX-2) [nM]
COc1ccccc1CN1CCCn2c1nc1c2c(=O)n(C)c(=O)n1C [Compound 9b]	1800	417	605	–	–	–	–	–	–	–	–	–	–	–	–	–	–	–	–	–
CCn1c(=O)c2c(nc3n2CCN(Cc2cccc(Cl)c2)C3)n(C)c1=O [Compound 14i, 8-(3-chlorobenzyl)-3-ethyl-1-methyl-6,7,8,9-tetrahydropyrazino[2,1-f]purine-2,4(1H,3H)-dione]	–	–	–	36	121 ± 45	8	33	> 1000	53 ± 5.8	> 50	≤ 10	20	> 10	–	–	–	–	–	–	–
CCn1c(=O)c2c(nc3n2CCN(Cc2ccccc2C(F)(F)F)C3)n(CC)c1=O [Compound 15f, 1,3-diethyl-8-(2-(trifluoromethyl)benzyl)-6,7,8,9-tetrahydropyrazino[2,1-f]purine-2,4(1H,3H)-dione]	–	–	–	–	129 ± 9	–	32	> 1000	51.4 ± 14.7	41	> 10	–	–	0.9 (≈ 2.14 µM)	0.7 (≈ 1.66 µM)	300 (≈ 712 µM)	> 1000	2	4.06	–
CCCn1c(=O)c2c(nc3n2CCN(Cc2ccc(Cl)c(Cl)c2)C3)n(C)c1=O [Compound 18]	–	–	–	–	475 ± 47	–	–	675 ± 104	152 ± 12	–	2.91	9	> 10	–	–	–	–	–	12.7	2110
